Usually IC50 stands for the concentration that gives 50% inhibition. A low value points to higher potency.

Holding throughout (type): biochemical
One assay deals with HDAC2 (Homo sapiens (Human), UniProt Q92769). Nature of the assay: HDAC enzyme assay, HDAC2. How it is done: (§1) Compounds for testing were diluted in DMSO to 50 fold the final concentration and a ten point three fold dilution series was made. The compounds were diluted in assay buffer (50 mM HEPES, pH 7.4, 100 mM KCl, 0.001% Tween-20, 0.05% BSA, 20 μM TCEP) to 6 fold their final concentration. The HDAC enzymes (purchased from BPS Biosciences) were diluted to 1.5 fold their final concentration in assay buffer. The tripeptide substrate and trypsin at 0.05 μM final concentration were diluted in assay buffer at 6 fold their final concentration. The final enzyme concentrations used in these assays were 3.3 ng/ml (HDAC1), 0.2 ng/ml (HDAC2), 0.08 ng/ml (HDAC3) and 2 ng/ml (HDAC6). The final substrate concentrations used were 16 μM (HDAC1), 10 μM (HDAC2), 17 μM (HDAC3) and 14 μM (HDAC6).
(§2) Five μl of compounds and 20 μl of enzyme were added to wells of a black, opaque 384 well plate in duplicate. Enzyme and compound were incubated together at room temperature for 10 minutes. Five μ1 of substrate was added to each well, the plate was shaken for 60 seconds and placed into a Victor 2 microtiter plate reader. The development of fluorescence was monitored for 60 min and the linear rate of the reaction was calculated. The IC50 was determined using Graph Pad Prism by a four parameter curve fit.

For another assay, the target named is HDAC1 (Homo sapiens (Human), UniProt Q13547). Kind of assay: HDAC enzyme assay, HDAC1. Here is the method:
as §1, §2

The next assay concerns the target HDAC6 (Homo sapiens (Human), UniProt Q9UBN7). Nature of the assay: HDAC enzyme assay, HDAC6. Here is the method: as §1
as §2, with “fit. The IC50 values obtained for several of the compounds of this invention are found in Table 1.” for “fit.”

A further assay deals with HDAC3 (Homo sapiens (Human), UniProt O15379). Nature of the assay: HDAC enzyme assay, HDAC3. How it is done: Compounds for testing were diluted in DMSO to 50 fold the final concentration and a ten point three fold dilution series was made. The compounds were diluted in assay buffer (50 mM HEPES, pH 7.4, 100 mM KCl, 0.001% Tween-20, 0.05% BSA, 20 μM TCEP) to 6 fold their final concentration. […] The tripeptide substrate and trypsin at 0.05 μM final concentration were diluted in assay buffer at 6 fold their final concentration. The final enzyme concentrations used in these assays were 3.3 ng/ml (HDAC1), 0.2 ng/ml (HDAC2), 0.08 ng/ml (HDAC3) and 2 ng/ml (HDAC6).
as §2

Sequence of HDAC1 (Q13547 whole entry): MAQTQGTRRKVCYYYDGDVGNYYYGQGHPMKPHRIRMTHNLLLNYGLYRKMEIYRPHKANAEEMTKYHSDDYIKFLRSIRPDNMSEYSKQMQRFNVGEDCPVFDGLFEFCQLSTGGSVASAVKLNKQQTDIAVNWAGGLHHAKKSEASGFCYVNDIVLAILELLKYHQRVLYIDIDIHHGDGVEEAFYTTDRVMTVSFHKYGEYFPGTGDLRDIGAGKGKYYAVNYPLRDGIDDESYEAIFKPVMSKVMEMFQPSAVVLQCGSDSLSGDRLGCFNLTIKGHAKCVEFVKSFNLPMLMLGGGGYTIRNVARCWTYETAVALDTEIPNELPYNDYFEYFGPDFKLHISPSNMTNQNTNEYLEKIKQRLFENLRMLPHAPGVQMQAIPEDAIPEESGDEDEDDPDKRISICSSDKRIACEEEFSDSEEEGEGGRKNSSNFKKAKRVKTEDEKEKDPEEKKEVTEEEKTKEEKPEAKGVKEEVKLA
Sequence of HDAC6 (Q9UBN7 whole entry): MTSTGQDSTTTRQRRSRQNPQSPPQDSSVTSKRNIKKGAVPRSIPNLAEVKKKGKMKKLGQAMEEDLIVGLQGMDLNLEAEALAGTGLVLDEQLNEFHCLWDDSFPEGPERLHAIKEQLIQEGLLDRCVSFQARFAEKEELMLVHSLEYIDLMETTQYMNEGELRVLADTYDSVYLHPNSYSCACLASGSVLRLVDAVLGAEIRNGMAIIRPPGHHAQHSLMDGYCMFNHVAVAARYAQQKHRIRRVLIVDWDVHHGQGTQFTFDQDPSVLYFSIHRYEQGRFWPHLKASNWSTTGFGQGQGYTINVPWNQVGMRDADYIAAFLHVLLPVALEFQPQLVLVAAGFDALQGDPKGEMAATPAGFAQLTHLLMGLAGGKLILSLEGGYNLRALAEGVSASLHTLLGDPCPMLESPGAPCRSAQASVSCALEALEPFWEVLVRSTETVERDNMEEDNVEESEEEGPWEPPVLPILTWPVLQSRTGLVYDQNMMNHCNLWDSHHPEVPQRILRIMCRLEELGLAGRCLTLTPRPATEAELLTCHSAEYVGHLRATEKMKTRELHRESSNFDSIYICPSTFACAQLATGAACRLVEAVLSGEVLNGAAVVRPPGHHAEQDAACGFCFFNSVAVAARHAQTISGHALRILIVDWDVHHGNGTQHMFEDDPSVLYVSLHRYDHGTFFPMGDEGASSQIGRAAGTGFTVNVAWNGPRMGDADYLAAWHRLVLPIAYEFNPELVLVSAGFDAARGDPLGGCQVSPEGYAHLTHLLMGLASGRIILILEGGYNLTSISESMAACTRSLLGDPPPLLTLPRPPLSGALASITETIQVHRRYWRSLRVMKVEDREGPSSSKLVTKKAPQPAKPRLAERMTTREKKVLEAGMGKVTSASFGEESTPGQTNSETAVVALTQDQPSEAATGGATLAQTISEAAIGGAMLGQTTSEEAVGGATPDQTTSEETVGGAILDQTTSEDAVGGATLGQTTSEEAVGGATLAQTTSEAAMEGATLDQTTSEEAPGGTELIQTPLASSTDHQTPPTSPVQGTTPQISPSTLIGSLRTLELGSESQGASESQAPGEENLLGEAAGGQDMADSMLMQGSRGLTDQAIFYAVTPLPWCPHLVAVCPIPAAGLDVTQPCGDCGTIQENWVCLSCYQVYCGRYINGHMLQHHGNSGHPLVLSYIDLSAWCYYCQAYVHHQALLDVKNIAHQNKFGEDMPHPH
Sequence of HDAC2 (Q92769 whole entry): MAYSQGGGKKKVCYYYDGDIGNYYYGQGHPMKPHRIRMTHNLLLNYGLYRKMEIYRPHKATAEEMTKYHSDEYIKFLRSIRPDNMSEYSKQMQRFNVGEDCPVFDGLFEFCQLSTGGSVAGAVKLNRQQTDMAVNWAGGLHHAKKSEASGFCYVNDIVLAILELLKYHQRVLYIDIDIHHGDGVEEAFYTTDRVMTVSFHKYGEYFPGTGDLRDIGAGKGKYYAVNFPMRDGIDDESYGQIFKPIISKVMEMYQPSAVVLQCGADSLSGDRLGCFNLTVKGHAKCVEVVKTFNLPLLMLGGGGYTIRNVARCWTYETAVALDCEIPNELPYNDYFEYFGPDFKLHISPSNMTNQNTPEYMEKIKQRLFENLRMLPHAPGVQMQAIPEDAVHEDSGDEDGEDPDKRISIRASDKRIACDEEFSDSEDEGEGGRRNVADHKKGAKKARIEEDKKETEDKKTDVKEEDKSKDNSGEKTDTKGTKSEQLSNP
Sequence of HDAC3 (O15379 whole entry): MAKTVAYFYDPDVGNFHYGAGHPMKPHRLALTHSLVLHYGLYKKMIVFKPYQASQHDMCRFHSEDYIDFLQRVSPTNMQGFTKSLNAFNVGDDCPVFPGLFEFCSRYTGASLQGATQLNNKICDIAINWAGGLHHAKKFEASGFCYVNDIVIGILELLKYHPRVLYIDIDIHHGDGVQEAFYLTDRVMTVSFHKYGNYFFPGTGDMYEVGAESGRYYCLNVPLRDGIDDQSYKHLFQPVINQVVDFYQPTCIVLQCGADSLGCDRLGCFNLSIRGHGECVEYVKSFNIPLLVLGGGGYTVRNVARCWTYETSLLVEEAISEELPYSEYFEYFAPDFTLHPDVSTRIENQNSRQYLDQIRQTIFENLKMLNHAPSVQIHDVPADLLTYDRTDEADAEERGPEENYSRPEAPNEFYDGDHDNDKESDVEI
Sequence of HDAC3 (Q9Y618 395-489 partner): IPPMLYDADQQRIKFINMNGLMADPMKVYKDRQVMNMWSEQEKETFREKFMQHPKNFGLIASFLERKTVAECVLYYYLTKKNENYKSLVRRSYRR

With `Cc1ccc(NC(=O)N2CCC(Nc3ncc(C(=O)NO)cn3)(c3ccccc3)CC2)cc1` [Compound 015, N-hydroxy-2-((4-phenyl-1-(p-tolylcarbamoyl)piperidin-4-yl)amino)pyrimidine-5-carboxamide], the IC50 amounted to 46 nM at HDAC2, 34 nM against HDAC1, 2 nM against HDAC6 and 693 nM at HDAC3.

For the compound `Cc1ccccc1S(=O)(=O)N1CCC(Nc2ncc(C(=O)NO)cn2)(c2ccccc2)CC1` [Compound 020, N-hydroxy-2-((4-phenyl-1-(o-tolylsulfonyl)piperidin-4-yl)amino)pyrimidine-5-carboxamide], the IC50 against HDAC2 is 423 nM; at HDAC1 it was 372 nM; against HDAC6, 4.5 nM; at HDAC3 it was 1980 nM.

Regarding `O=C(NO)c1cnc(NC2(c3ccccc3)CCN(C(=O)Cc3c[nH]c4ccccc34)CC2)nc1` [Compound 028, 2-((1-(2-(1H-indol-3-yl)acetyl)-4-phenylpiperidin-4-yl)amino)-N-hydroxypyrimidine-5-carboxamide], the concentration for half-maximal inhibition (IC50) was determined as 2 nM on HDAC2, 3 nM against HDAC1, 2.8 nM against HDAC6 and 24 nM against HDAC3.

Regarding `O=C(NO)c1cnc(NC2(c3ccccc3)CCN(S(=O)(=O)c3ccc(Cl)cc3)CC2)nc1` [Compound 019, 2-((1-((4-chlorophenyl)sulfonyl)-4-phenylpiperidin-4-yl)amino)-N-hydroxypyrimidine-5-carboxamide], the IC50 against HDAC2 is 987 nM; against HDAC1, 854 nM; against HDAC6, 5 nM; on HDAC3, 3190 nM.

With `CNC(=O)N1CCC(Nc2ncc(C(=O)NO)cn2)(c2ccccc2)CC1` [Compound 016, N-hydroxy-2-((1-(methylcarbamoyl)-4-phenylpiperidin-4-yl)amino)pyrimidine-5-carboxamide], the concentration for half-maximal inhibition (IC50) on HDAC2 came to 207 nM; at HDAC1 it was 170 nM; at HDAC6 it was 1.7 nM; against HDAC3, 987 nM.

`O=C(NO)c1cnc(NC2(c3ccccc3)CCN(C(=O)Cc3cc4ccccc4[nH]3)CC2)nc1` [Compound 031, 2-((1-(2-(1H-indol-2-yl)acetyl)-4-phenylpiperidin-4-yl)amino)-N-hydroxypyrimidine-5-carboxamide]: the 50% inhibitory concentration (IC50) against HDAC2 stood at 9 nM; at HDAC1 it was 10 nM; at HDAC6, 5 nM; against HDAC3, 42 nM.

In the case of `CC(C)C1(Nc2ncc(C(=O)NO)cn2)CCN(C(=O)OCc2ccccc2)CC1` [Compound 007, benzyl 4-((5-(hydroxycarbamoyl)pyrimidin-2-yl)amino)-4-isopropylpiperidine-1-carboxylate], the IC50 against HDAC2 came to 121 nM; at HDAC1 it was 119 nM; against HDAC6, 5.1 nM; on HDAC3, 879 nM.

`CC(C)C[C@H](C(=O)N1CCC(Nc2ncc(C(=O)NO)cn2)(c2ccccc2)CC1)c1ccccc1` (stereo in doubt) [Compound 029, N-hydroxy-2-((1-(4-methyl-2-phenylpentanoyl)-4-phenylpiperidin-4-yl)amino)pyrimidine-5-carboxamide]: the IC50 at HDAC2 was 93 nM; against HDAC1, 102 nM; against HDAC6, 11 nM; against HDAC3 it was 914 nM.

Regarding `CC(=O)N1CCC(Nc2ncc(C(=O)NO)cn2)(C(C)C)CC1` [Compound 005, 2-((1-acetyl-4-isopropylpiperidin-4-yl)amino)-N-hydroxypyrimidine-5-carboxamide], the concentration for half-maximal inhibition (IC50) stood at 2390 nM against HDAC2, 1830 nM at HDAC1, 5.9 nM against HDAC6 and 8180 nM against HDAC3.

Take `CCOC(=O)N1CCC(Nc2ncc(C(=O)NO)cn2)(c2ccccc2)CC1` [Compound 004, ethyl 4-((5-(hydroxycarbamoyl)pyrimidin-2-yl)amino)-4-phenylpiperidine-1-carboxylate]: the IC50 against HDAC2 was determined as 321 nM; against HDAC1, 275 nM; against HDAC6, 2.9 nM; against HDAC3, 1000 nM.

Consider `O=C(NO)c1cnc(NC2(c3ccccc3)CCN(C(=O)Nc3cccc(F)c3)CC2)nc1` [Compound 013, 2-((1-((3-fluorophenyl)carbamoyl)-4-phenylpiperidin-4-yl)amino)-N-hydroxypyrimidine-5-carboxamide], for which the IC50 at HDAC2 worked out at 74 nM; at HDAC1, 50 nM; against HDAC6, 2.5 nM; against HDAC3, 1080 nM.

Take `O=C(NO)c1cnc(NC2(c3ccccc3)CCN(C(=O)OCc3ccccc3)CC2)nc1` [Compound 002, benzyl 4-((5-(hydroxycarbamoyl)pyrimidin-2-yl)amino)-4-phenylpiperidine-1-carboxylate]: the IC50 on HDAC2 amounted to 983 nM; at HDAC1 it was 1010 nM; at HDAC6 it was 2.6 nM; against HDAC3 it was 1640 nM.

`O=C(NO)c1cnc(NC2(c3ccccc3)CCN(C(=O)Nc3ccccc3F)CC2)nc1` [Compound 010, 2-((1-((2-fluorophenyl)carbamoyl)-4-phenylpiperidin-4-yl)amino)-N-hydroxypyrimidine-5-carboxamide]: the IC50 against HDAC2 worked out at 27 nM; against HDAC1, 18 nM; at HDAC6 it was 1.7 nM; at HDAC3, 824 nM.

As to `O=C(NO)c1cnc(NC2(c3ccccc3)CCN(C(=O)Nc3ccc(F)cc3)CC2)nc1` [Compound 014, 2-((1-((4-fluorophenyl)carbamoyl)-4-phenylpiperidin-4-yl)amino)-N-hydroxypyrimidine-5-carboxamide], the IC50 against HDAC2 amounted to 43 nM; at HDAC1 it was 33 nM; at HDAC6 it was 2 nM; against HDAC3, 1070 nM.

On to `CC(C)[C@@H](C(=O)N1CCC(Nc2ncc(C(=O)NO)cn2)(c2ccccc2)CC1)c1ccccc1` (stereo in doubt) [Compound 025, N-hydroxy-2-((1-(3-methyl-2-phenylbutanoyl)-4-phenylpiperidin-4-yl)amino)pyrimidine-5-carboxamide], for which the IC50 on HDAC2 was 18 nM; on HDAC1, 20 nM; at HDAC6, 13 nM; against HDAC3, 84 nM.

`CC(C)C[C@@H](C(=O)N1CCC(Nc2ncc(C(=O)NO)cn2)(c2ccccc2)CC1)c1ccccc1` (stereo in doubt) [Compound 030, N-hydroxy-2-((1-(4-methyl-2-phenylpentanoyl)-4-phenylpiperidin-4-yl)amino)pyrimidine-5-carboxamide]: the IC50 against HDAC2 stood at 22 nM; at HDAC1, 23 nM; on HDAC6, 12 nM; against HDAC3, 114 nM.

For `CCOC(=O)N1CCC(Nc2ncc(C(=O)NO)cn2)(C(C)C)CC1` [Compound 006, ethyl 4-((5-(hydroxycarbamoyl)pyrimidin-2-yl)amino)-4-isopropylpiperidine-1-carboxylate], the IC50 was determined as 809 nM on HDAC2, 697 nM against HDAC1, 4 nM on HDAC6 and 3780 nM at HDAC3.

In the case of `O=C(NO)c1cnc(NC2(c3ccccc3)CCN(S(=O)(=O)c3cccc(F)c3)CC2)nc1` [Compound 018, 2-((1-((3-fluorophenyl)sulfonyl)-4-phenylpiperidin-4-yl)amino)-N-hydroxypyrimidine-5-carboxamide], the IC50 against HDAC2 amounted to 644 nM; at HDAC1 it was 551 nM; on HDAC6, 5.1 nM; against HDAC3, 2480 nM.

Values taken from patent publication US9278963B2, “Pyrimidine hydroxy amide compounds as histone deacetylase inhibitors” (Acetylon Pharmaceuticals, Inc., priority 2013, dated 2016).
